# Results taken from publication PMC9435431, “Novel chemical entities inhibiting Mycobacterium tuberculosis growth identified by phenotypic high-throughput screening” (Scientific Reports, 2022).
# Structures can show the parent of a compound that is named as a salt. Where two headings read alike, the source gives them in different places.
# System: wild-type M. tuberculosis
# Assay: microbe, parasite or virus in culture
# Format: cell-based, Mycobacterium tuberculosis
# [1] = Mycobacterium tuberculosis, 120 h, read-out: MIC
# [2] = Mycobacterium tuberculosis, read-out: MIC
compound,measurement,setting,value
Cc1nc(-c2ccccn2)nc(NCCNc2ccc(C(F)(F)F)cn2)c1Cl [APDP-2],IC90,Mycobacterium tuberculosis,33 µM
Cc1nc(-c2ccccn2)nc(NCc2ccccc2)c1Cl [APDP-3],IC90,Mycobacterium tuberculosis,6.3 µM
CC1C(CNC(=O)Nc2ccccc2)CC2CC1C2(C)C (centres unmarked) [HBU-2],IC90,Mycobacterium tuberculosis,4.9 µM
CC(=O)c1ccc(NC(=O)NC(C)C23CC4CC(CC(C4)C2)C3)cc1 (centres unmarked) [HBU-3],IC90,Mycobacterium tuberculosis,29 µM
O=C(NCCc1ccc(Br)cc1)NC12CC3CC(CC(C3)C1)C2 [HBU-4],IC90,Mycobacterium tuberculosis,12 µM
CC(NC(=O)Nc1nc(-c2ccc(Cl)cc2)cs1)C1CC2C=CC1C2 (centres unmarked) [HBU-5],IC90,Mycobacterium tuberculosis,13 µM
"CCC1(N2CCC(c3ccc(C(C)(C)C)cc3)CC2)CCCCC1 [Molecule 4PP-2, 4-(4-tert-Butyl-phenyl)-1-(1-ethyl-cyclohexyl)-piperidine]",MIC,[1],2 ± 0.5 µM
same,MIC,[2],2 µM
"CC(C)(C)c1ccc(C2CCN(CC3CCCCC3)CC2)cc1 [Molecule 4PP-3, 4-(4-t-Butylphenyl)-1-(cyclohexylmethyl)piperidine; 2,2,2-trifluoroacetic acid]",MIC,[1],6.8 ± 0.9 µM
same,MIC,[2],6.8 µM
"c1ccc(C2CCN(CC3CCCCC3)CC2)cc1 [Molecule 4PP-4, 1-Cyclohexylmethyl-4-phenyl-piperidine]",MIC,[1],21 ± 9 µM
same,MIC,[2],21 µM
"CC(C)(C)c1ccc(C2CCN(S(=O)(=O)C3CCCCC3)CC2)cc1 [Molecule 4PP-5, 4-(4-(t-Butyl)phenyl)-1-(cyclohexylsulfonyl)piperidine]",anti-tubercular activity (in words),,lost whole-cell activity
same,MIC,[1],> 20 µM
"CC(C)(C)c1ccc(C2CCN(C(=O)C3CCCCC3)CC2)cc1 [Molecule 4PP-6, (4-(4-(t-Butyl)phenyl)piperidin-1-yl)(cyclohexyl)methanone]",anti-tubercular activity (in words),,lost whole-cell activity
same,MIC,[1],> 20 µM
"CC(C)(C)NC(=O)N1CCC(c2ccc(C(C)(C)C)cc2)CC1 [Molecule 4PP-7, N-(t-Butyl)-4-(4-(tert-butyl)phenyl)piperidine-1-carboxamide]",anti-tubercular activity (in words),,loss of activity
same,MIC,[1],> 20 µM
"CC(C)(C)c1ccc(C2CCN(C(=O)N3CCCCC3)CC2)cc1 [Molecule 4PP-8, (4-(4-(t-Butyl)phenyl)piperidin-1-yl)(piperidin-1-yl)methanone]",anti-tubercular activity (in words),,loss of activity
same,MIC,[1],> 20 µM
"O=S(=O)(C1CCCCC1)N1CCC(c2ccccc2)CC1 [Molecule 4PP-9, 1-(Cyclohexylsulfonyl)-4-phenylpiperidine]",anti-tubercular activity (in words),,lost activity
same,MIC,[1],> 20 µM
"O=C(C1CCCCC1)N1CCC(c2ccccc2)CC1 [Molecule 4PP-10, Cyclohexyl(4-phenylpiperidin-1-yl) methanone]",anti-tubercular activity (in words),,lost activity
same,MIC,[1],> 20 µM
"CC(C)(C)NC(=O)N1CCC(c2ccccc2)CC1 [Molecule 4PP-11, N-(tert-butyl)-4-phenylpiperidine-1-carboxamide]",anti-tubercular activity (in words),,lost activity
same,MIC,[1],> 20 µM
"O=C(N1CCCCC1)N1CCC(c2ccccc2)CC1 [Molecule 4PP-12, (4-Phenylpiperidin-1-yl)(piperidin-1-yl)methanone]",anti-tubercular activity (in words),,lost activity
same,MIC,[1],> 20 µM
"O=C(NC1CCCCC1)N1CCC(c2ccccc2)CC1 [Molecule 4PP-13, N-cyclohexyl-4-phenylpiperidine-1-carboxamide]",anti-tubercular activity (in words),,did not furnish activity
same,MIC,[1],> 20 µM
"CC(C)(C)CC(=O)N1CCC(c2ccccc2)CC1 [Molecule 4PP-14, 3,3-Dimethyl-1-(4-phenylpiperidin-1-yl)butan-1-one]",anti-tubercular activity (in words),,did not furnish activity
same,MIC,[1],> 20 µM
"CC(C)(C)c1ccc(C2CCN(C3CCCCC3)CC2)cc1 [Molecule 4PP-16, 4-(4-t-Butyl-phenyl)-1-cyclohexyl-piperidine, hydrochloride]",MIC,[1],2.7 ± 0.8 µM
same,MIC,[2],2.7 µM
"CN(C)C1CCC(N2CCC(c3ccc(C(C)(C)C)cc3)CC2)CC1 (centres unmarked) [Molecule 4PP-17, 4-(4-(4-(t-Butyl)phenyl)piperidin-1-yl)-N,N-dimethylcyclohexan-1-amine]",anti-tubercular activity (in words),,detrimental to the activity
same,MIC,[1],> 20 µM
"COC(=O)C1CCC(N2CCC(c3ccc(C(C)(C)C)cc3)CC2)CC1 (centres unmarked) [Molecule 4PP-18, Methyl 4-(4-(4-(tert-butyl)phenyl)piperidin-1-yl)cyclohexane-1-carboxylate]",anti-tubercular activity (in words),,loss in activity
same,MIC,[1],> 20 µM
"CC(C)(C)c1ccc(C2CCN(C3CCC(C(=O)O)CC3)CC2)cc1 (centres unmarked) [Molecule 4PP-19, 4-(4-(4-(tert-Butyl)phenyl)piperidin-1-yl)cyclohexane-1-carboxylic acid]",anti-tubercular activity (in words),,loss in activity
same,MIC,[1],> 20 µM
"CC(C)(C)c1ccc(C2CCN(C3CCC(=O)CC3)CC2)cc1 [Molecule 4PP-20, 4-[4-(4-t-Butyl-phenyl)-piperidin-1-yl]-cyclohexanone]",anti-tubercular activity (in words),,loss in activity
same,MIC,[1],> 20 µM
"CN(C)C1CCC(N2CCC(c3ccccc3)CC2)CC1 (centres unmarked) [Molecule 4PP-21, N,N-dimethyl-4-(4-phenylpiperidin-1-yl)cyclohexan-1-amine]",anti-tubercular activity (in words),,loss of activity
same,MIC,[1],> 20 µM
"COC(=O)C1CCC(N2CCC(c3ccccc3)CC2)CC1 (centres unmarked) [Molecule 4PP-22, Methyl 4-(4-phenylpiperidin-1-yl)cyclohexane-1-carboxylate]",anti-tubercular activity (in words),,loss of activity
same,MIC,[1],> 20 µM
"OC1CCC(N2CCC(c3ccccc3)CC2)CC1 (centres unmarked) [Molecule 4PP-23, 4-(4-Phenylpiperidin-1-yl)cyclohexan-1-ol]",anti-tubercular activity (in words),,loss of activity
same,MIC,[1],> 20 µM
"CC(C)(C)c1ccc(C2CCN(C3CCOCC3)CC2)cc1 [Molecule 4PP-24, 4-(4-(tert-Butyl)phenyl)-1-(tetrahydro-2H-pyran-4-yl)piperidine]",MIC,[1],> 20 µM
same,MIC,[2],> 20 µM
"CN1CCC(N2CCC(c3ccc(C(C)(C)C)cc3)CC2)CC1 [Molecule 4PP-25, 4-(4-(tert-Butyl)phenyl)-1'-methyl-1,4'-bipiperidine]",MIC,[1],> 20 µM
same,MIC,[2],> 20 µM
"c1ccc(C2CCN(C3CCOCC3)CC2)cc1 [Molecule 4PP-26, 4-Phenyl-1-(tetrahydro-2H-pyran-4-yl)piperidine]",MIC,[1],> 20 µM
same,MIC,[2],> 20 µM
"CN1CCC(N2CCC(c3ccccc3)CC2)CC1 [Molecule 4PP-27, 1'-Methyl-4-phenyl-1,4'-bipiperidine]",MIC,[1],> 20 µM
same,MIC,[2],> 20 µM
"Brc1cccc(C2CCN(CC3CCCCC3)CC2)c1 [Molecule 4PP-28, 4-(3-Bromophenyl)-1-(cyclohexylmethyl)piperidine; 2,2,2-trifluoroacetic acid]",MIC,[1],2.8 ± 0.7 µM
same,MIC,[2],2.8 µM
"Clc1cccc(C2CCN(CC3CCCCC3)CC2)c1 [Molecule 4PP-29, 4-(3-Chlorophenyl)-1-(cyclohexylmethyl)piperidine; 2,2,2-trifluoroacetic acid]",MIC,[1],4.1 µM
same,MIC,[2],4.1 µM
"N#Cc1ccc(C2CCN(CC3CCCCC3)CC2)cc1.O=C(O)C(F)(F)F [Molecule 4PP-30, 4-[1-(Cyclohexylmethyl)-4-piperidyl]benzonitrile; 2,2,2-trifluoroacetic acid]",anti-tubercular activity (in words),,inactive
same,MIC,[1],> 20 µM
"O=C(O)C(F)(F)F.c1ccc2c(C3CCN(CC4CCCCC4)CC3)cccc2c1 [Molecule 4PP-31, 1-(Cyclohexylmethyl)-4-(1-naphthyl)piperidine; 2,2,2-trifluoroacetic acid]",IC90,Mycobacterium tuberculosis,2.7 µM
same,MIC,[1],2.7 ± 2.4 µM
same,MIC,[2],2.7 µM
"C1=CC2(CCN(CC3CCCCC3)CC2)c2ccccc21 [Molecule 4PP-35, 1'-(Cyclohexylmethyl)spiro[indene-1,4'-piperidine]; 2,2,2-trifluoroacetic acid]",MIC,[1],6.3 ± 0.1 µM
same,MIC,[2],6.3 µM
"CC(=O)C1(c2ccccc2)CCN(CC2CCCCC2)CC1 [Molecule 4PP-36, 1-[1-(Cyclohexylmethyl)-4-phenyl-4-piperidyl]ethanone]",MIC,[1],> 20 µM
"N#CC1(c2ccccc2)CCN(CC2CCCCC2)CC1 [Molecule 4PP-37, 1-(Cyclohexylmethyl)-4-phenyl-piperidine-4-carbonitrile; 2,2,2-trifluoroacetic acid]",MIC,[1],> 20 µM
"CC(=O)NCC1(c2ccccc2)CCN(CC2CCCCC2)CC1 [Molecule 4PP-38, N-[[1-(Cyclohexylmethyl)-4-phenyl-4-piperidyl]methyl]acetamide; 2,2,2-trifluoroacetic acid]",MIC,[1],> 20 µM
"COC(=O)C1(c2ccccc2)CCN(CC2CCCCC2)CC1 [Molecule 4PP-39, Methyl 1-(cyclohexylmethyl)-4-phenyl-piperidine-4-carboxylate; 2,2,2-trifluoroacetic acid]",MIC,[1],> 20 µM
"OCC1(c2ccccc2)CCN(CC2CCCCC2)CC1 [Molecule 4PP-40, [1-(Cyclohexylmethyl)-4-phenyl-4-piperidyl]methanol; 2,2,2-trifluoroacetic acid]",MIC,[1],> 20 µM
"c1ccc(C2CCN(Cc3ccc4c(c3)OCO4)CC2)cc1 [Molecule 4PP-42, 1-(Benzo[d][1,3]dioxol-5-ylmethyl)-4-phenylpiperidine]",anti-tubercular activity (in words),,inactive
same,MIC,[1],> 20 µM
"CC(C)(C)CC(C)(C)N1CCC(c2ccc(C(C)(C)C)cc2)CC1 [Molecule 4PP-43, 4-(4-t-Butyl-phenyl)-1-(1,1,3,3-tetramethyl-butyl)-piperidine]",MIC,,5.2 ± 1.9 µM
same,MIC,[1],5.9 µM
"CC(C)(C)CC(C)(C)N1CCC(c2ccccc2)CC1 [Molecule 4PP-44, 4-Phenyl-1-(1,1,3,3-tetramethyl-butyl)-piperidine]",IC90,Mycobacterium tuberculosis,5.2 µM
same,MIC,[1],5.2 ± 5 µM
same,MIC,[2],5.2 µM
"CC(C)(C)CC(C)(C)N1CC=C(c2c[nH]c3ncccc23)CC1 [Molecule 4PP-45, 3-(1-(2,4,4-Trimethylpentan-2-yl)-1,2,3,6-tetrahydropyridin-4-yl)-1H-pyrrolo[2,3-b]pyridine]",anti-tubercular activity (in words),,inactive
same,MIC,[1],> 20 µM
"CC(C)(C)CC(C)(C)N1CCC(c2c[nH]c3ncccc23)CC1 [Molecule 4PP-46, 3-(1-(2,4,4-Trimethylpentan-2-yl)piperidin-4-yl)-1H-pyrrolo[2,3-b]pyridine]",anti-tubercular activity (in words),,inactive
same,MIC,[1],> 20 µM
